Consider two molecules from patent publication US8969861B2, “Method of manufacturing organic electroluminescence display device” (Canon Kabushiki Kaisha, priority 2012, dated 2015).

Format in all cases: physicochemical
Series [1] can be described thus: Etching (dissolution) rate of deposited layers in IPA/water mixed solvent. Particulars: IPA 60 wt %; for etching rate of the layer: identical etching conditions. The source says: In the present invention, a larger etching rate means a higher dissolution rate. In addition, a larger etching rate means a higher solubility of a layer having a material of interest in the solvent (polar solvent). FIG. 3 is a graph showing thickness changes in the compound 1 and the compound A2 over an etching time. […] On the other hand, the thickness of a layer (layer B) formed of the compound A2 as a heterocyclic compound reduces over time. When the etching rates of the respective layers are calculated with their etching conditions made identical to each other, the etching rate of the layer A is 0.008 nm/sec but the etching rate of the layer B is 0.87 nm/sec, that is, a ratio of the latter to the former is about 100.

A short description of series [2]: Etching of sacrificial layer by dipping method (FIG. 9). Particulars: 60-wt % aqueous solution of IPA; thickness by spectroscopic ellipsometer. From the text:
The dipping method is a method involving loading the substrate 10 in a container storing the polar solvent, dipping the substrate 10 in the polar solvent for a certain time period, and then taking the substrate 10 out of the container. Upon dipping of the substrate 10 in the polar solvent, (at least part of) the sacrificial layer 30 is eluted. At this time, when the concentration of the water-soluble polymer material constituting the intermediate layer 40, which can be dissolved together with the sacrificial layer 30, in the polar solvent is low, the polar solvent can be reused as the polar solvent to be used in first dipping.
The dipping method is performed by, for example, a method to be described below. […]
FIG. 9 is a graph showing a relationship between the total time of etching by the dipping method and the thickness of the sacrificial layer formed of the compound A2. […] The thickness of the sacrificial layer was measured with a spectroscopic ellipsometer (HORIBA). […] Although the graph shown in FIG. 9 is merely a specific example, the number of repetition of the process based on the dipping method can be decided by utilizing the quantitative tendency of the sacrificial layer 30 to reduce shown in FIG. 9. […]

Series [3] in a line: Solubility in IPA/water mixed solvent (FIG. 4). To be noted: IPA concentration of 80 wt %. The source says:
The solubility of a compound as a constituent material for each layer in the IPA/water mixed solvent varies depending on the weight ratio of IPA in the mixed solvent. FIG. 4 is a graph showing the solubilities of the compound 1 (fused polycyclic hydrocarbon compound) and the compound A2 (heterocyclic compound) in the IPA/water mixed solvent (polar solvent). Here, in the graph of FIG. 4, the axis of abscissa indicates the weight percent concentration of IPA in the IPA/water mixed solvent, and the axis of ordinate indicates the amount of the fused polycyclic hydrocarbon compound or heterocyclic compound to dissolve in 1 g of the solvent.

A short description of series [4]: Etching of sacrificial layer by spin washing method (FIG. 6). To be noted: 60-wt % aqueous solution of IPA; thickness by spectroscopic ellipsometer. From the text:
The spin washing method involves first dropping a polar solvent 81 onto the sacrificial layer 30 (FIG. 5B), holding the resultant for a predetermined time period (FIG. 5C), then rotating the substrate 10 to splash the polar solvent 81, and drying the substrate 10 by means of the rotation (FIG. 5D). The spin washing method in which the process illustrated in FIGS. 5A to 5D is defined as one cycle is typically repeated a plurality of times. It is to be noted that the polar solvents 81 to be used in the cycle to be performed a plurality of times may be the same every time, or mixed solvents having different compositional ratios may be used in part of the times or every time.
FIG. 6 is a graph showing a relationship between the total time of etching by the spin washing method and the thickness of the sacrificial layer formed of the compound A2. It is to be noted that in the graph of FIG. 6, the compound A2 is used as a constituent material for the sacrificial layer 30 and a 60-wt % aqueous solution of IPA is used as a polar solvent. […] The thickness of the sacrificial layer was measured with a spectroscopic ellipsometer (HORIBA). […] Although the graph shown in FIG. 6 is merely a specific example, the number of repetition of the process based on the spin washing method can be decided by utilizing the quantitative tendency of the sacrificial layer 30 to reduce shown in FIG. 6.

In the case of `CC1(C)c2ccccc2-c2ccc(-c3ccc4ccc5ccc(-c6ccc7c(c6)C(C)(C)c6ccccc6-7)nc5c4n3)cc21` [compound A2], in series [1], the “ratio of etching rate of layer B (compound A2) to layer A (compound 1)” value is listed as “about 100” and the “etching rate of the layer” value turned out to be 0.87 nm/s. The “rate at which the sacrificial layer was etched by the dipping method” value in series [2] worked out at 3.7 nm/time. The “amount dissolving in 1 g of the IPA/water mixed solvent” value in series [3] came out at 73 µg. In addition, the “rate at which the sacrificial layer is etched by one spin washing” value in series [4] is reported as “about 6.7 nm”.
`CC1(C)c2cc(-c3ccc4ccc5cccc6ccc3c4c56)ccc2-c2ccc(-c3ccc4ccc5cccc6ccc3c4c56)cc21` [compound 1]: the “etching rate of the layer” value in series [1] was 0.008 nm/s. In addition, the “amount dissolving in 1 g of the IPA/water mixed solvent” value in series [3] came to 5 µg.
